From patent US20260262643A1, “HERBICIDAL BENZOXAZINES” (FMC CORPORATION, priority 2022, published 2026)

What was measured:
[1] = test system: sedge, umbrella; test: Test B flooded paddy test; format: in vivo, Cyperus difformis; settings: 250 g ai/ha, Flood, 13 days, 0 to 100 scale (0 no effect, 100 complete control)
Summary of the method: (§1)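 Visual scores from 0 (no effect) to 100 (complete kill) were assigned 13 days after treatment by comparison with controls. Seedlings had been treated at two leaves by adding compound to floodwater standing 3 cm deep, kept at that level in the greenhouse.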

[2] = test system: ragweed; test: Test A preemergence; format: in vivo, Ambrosia artemisiifolia
Summary of the method: (§2)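 Greenhouse pot test, 10 days. Compound (non-phytotoxic solvent, surfactant) sprayed on soil at seeding or on seedlings at one- to two-leaf stage. Visual injury rated 0–100 against untreated plants.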

[3] = test system: kochia; test: Test A preemergence; format: in vivo, Bassia scoparia
Summary of the method: as §2

[4] = test system: ragweed; test: Test A postemergence; format: in vivo, Ambrosia artemisiifolia
Summary of the method: as §2

[5] = test system: ducksalad; test: Test B flooded paddy test; format: in vivo, Heteranthera limosa; settings: 250 g ai/ha, Flood, 13 days, 0 to 100 scale (0 no effect, 100 complete control)
Summary of the method: as §1

[6] = test system: rice; test: Test B flooded paddy test; format: in vivo, Oryza sativa; settings: 250 g ai/ha, Flood, 13 days, 0 to 100 scale (0 no effect, 100 complete control)
Summary of the method: as §1

[7] = test system: foxtail, giant; test: Test A postemergence; format: in vivo, Setaria faberi
Summary of the method: as §2

[8] = test system: wheat; test: Test A postemergence; format: in vivo, Triticum aestivum
Excerpt: (§3) Seeds of plant species selected from barnyardgrass (Echinochloa crusgalli), blackgrass (Alopecurus myosuroides), corn (Zea mays), foxtail, giant (giant foxtail, Setaria faberi), goosegrass (Eleusine indica), kochia (Bassia scoparia), oat, wild (wild oat, Avena fatua), pigweed, palmer (palmer amaranth, palmer pigweed, Amaranthus palmeri), Pigweed, Redroot (redroot pigweed, Amaranthus retroflexus), ragweed (common ragweed, Ambrosia artemisiifolia), ryegrass, Italian (italian ryegrass, Lolium multiflorum), soybean (Glycine max), and wheat (Triticum aestivum) were planted into a blend of loam soil and sand and treated preemergence with a directed soil spray using test chemicals formulated in a non-phytotoxic solvent mixture which included a surfactant. At the same time, plants selected from these crops and weed species and also galium (catchweed bedstraw, Galium aparine) and horseweed (Erigeron canadensis) were planted in pots containing the same blend of loam soil and sand and treated with postemergence applications of test chemicals formulated in the same manner. Plants ranged in height from 2 to 10 cm and were in the one- to two-leaf stage for the postemergence treatment. Treated plants and untreated controls were maintained in a greenhouse for 10 days, after which time all treated plants were compared to untreated controls and visually evaluated for injury. Plant response ratings, summarized in Table A, are based on a 0 to 100 scale where 0 is no effect and 100 is complete control. A dash (-) response means no test result.

[9] = test system: corn; test: Test A preemergence; format: in vivo, Zea mays
Excerpt: as §3

[10] = test system: oat, wild; test: Test A postemergence; format: in vivo, Avena fatua
Excerpt: as §3

[11] = test system: wheat; test: Test A preemergence; format: in vivo, Triticum aestivum
Excerpt: as §3

[12] = test system: oat, wild; test: Test A preemergence; format: in vivo, Avena fatua
Excerpt: as §3

[13] = test system: pigweed, palmer; test: Test A preemergence; format: in vivo, Amaranthus palmeri
Summary of the method: as §2

[14] = test system: galium; test: Test A postemergence; format: in vivo, Galium aparine
Summary of the method: as §2

[15] = test system: foxtail, giant; test: Test A preemergence; format: in vivo, Setaria faberi
Summary of the method: as §2

[16] = test system: goosegrass; test: Test A postemergence; format: in vivo, Eleusine indica
Summary of the method: as §2

[17] = test system: barnyardgrass; test: Test B flooded paddy test; format: in vivo, Echinochloa crus-galli; settings: 250 g ai/ha, Flood, 13 days, 0 to 100 scale (0 no effect, 100 complete control)
Summary of the method: as §1

[18] = test system: blackgrass; test: Test A preemergence; format: in vivo, Alopecurus myosuroides
Summary of the method: as §2

[19] = test system: ryegrass, Italian; test: Test A preemergence; format: in vivo, Lolium multiflorum
Summary of the method: as §2

[20] = test system: ryegrass, Italian; test: Test A postemergence; format: in vivo, Lolium multiflorum
Summary of the method: as §2

[21] = test system: corn; test: Test A postemergence; format: in vivo, Zea mays
Excerpt: as §3

[22] = test system: soybean; test: Test A preemergence; format: in vivo, Glycine max
Excerpt: as §3

[23] = test system: blackgrass; test: Test A postemergence; format: in vivo, Alopecurus myosuroides
Summary of the method: as §2

[24] = test system: soybean; test: Test A postemergence; format: in vivo, Glycine max
Excerpt: as §3

[25] = test system: pigweed, palmer; test: Test A postemergence; format: in vivo, Amaranthus palmeri
Summary of the method: as §2

[26] = test system: kochia; test: Test A postemergence; format: in vivo, Bassia scoparia
Summary of the method: as §2

[27] = test system: goosegrass; test: Test A preemergence; format: in vivo, Eleusine indica
Summary of the method: as §2

[28] = 125 g ai/ha, visual injury after 10 days, 0 to 100 scale, 0 is no effect, 100 is complete control
[29] = 500 g ai/ha, 0 to 100 scale (0 no effect, 100 complete control), 10 days
[30] = 125 g ai/ha, postemergence, 10 days, visual injury, 0 to 100 scale (0 no effect, 100 complete control)
[31] = 500 g ai/ha, Postemergence, 0 to 100 scale

Q: `CC1CN(C(=O)c2cccc(-n3cncn3)c2)c2cc(F)cc(F)c2O1` (stereo not shown) [Compound 45] was tested. Which “Plant response rating, Sedge, Umbrella” value [1] did it give?
A: 0

Q: What about the “Plant response rating, Ragweed” value [2, 28] of the same compound?
A: 0

Q: What about the “Plant response rating, Ragweed” value [2, 29] of the same compound?
A: 0

Q: What about the “Plant response rating, Kochia” value [3, 28] of the same compound?
A: 0

Q: What about the “Plant response rating, Kochia” value [3, 29] of the same compound?
A: 20

Q: And the “Plant response rating, Ragweed” value [4, 30]?
A: 0

Q: What about the “Plant response rating, Ragweed” value [4, 31] of the same compound?
A: 30

Q: What about the “Plant response rating, Ducksalad” value [5] of the same compound?
A: 0

Q: What about the “Plant response rating, Rice” value [6] of the same compound?
A: 0

Q: And the “Plant response rating, Foxtail, Giant” value [7, 30]?
A: 20

Q: What about the “Plant response rating, Foxtail, Giant” value [7, 31] of the same compound?
A: 90

Q: And the “Plant response rating, Wheat” value [8, 30]?
A: 10

Q: What about the “Plant response rating, Wheat” value [8, 31] of the same compound?
A: 40

Q: And the “Plant response rating, Corn” value [9, 28]?
A: 0

Q: What about the “Plant response rating, Corn” value [9, 29] of the same compound?
A: 20

Q: What about the “Plant response rating, Oat, Wild” value [10, 30] of the same compound?
A: 0

Q: What about the “Plant response rating, Oat, Wild” value [10, 31] of the same compound?
A: 20

Q: What about the “Plant response rating, Wheat” value [11, 28] of the same compound?
A: 0

Q: And the “Plant response rating, Wheat” value [11, 29]?
A: 60

Q: What about the “Plant response rating, Oat, Wild” value [12, 28] of the same compound?
A: 0

Q: And the “Plant response rating, Oat, Wild” value [12, 29]?
A: 80

Q: What about the “Plant response rating, Pigweed, Palmer” value [13, 28] of the same compound?
A: 30

Q: What about the “Plant response rating, Pigweed, Palmer” value [13, 29] of the same compound?
A: 70

Q: What about the “Plant response rating, Galium” value [14, 30] of the same compound?
A: 80

Q: And the “Plant response rating, Galium” value [14, 31]?
A: 90

Q: What about the “Plant response rating, Foxtail, Giant” value [15, 28] of the same compound?
A: 70

Q: What about the “Plant response rating, Foxtail, Giant” value [15, 29] of the same compound?
A: 100

Q: What about the “Plant response rating, Goosegrass” value [16, 30] of the same compound?
A: 0

Q: And the “Plant response rating, Goosegrass” value [16, 31]?
A: 60

Q: And the “Plant response rating, Barnyardgrass” value [17]?
A: 0

Q: And the “Plant response rating, Blackgrass” value [18, 28]?
A: 50

Q: What about the “Plant response rating, Blackgrass” value [18, 29] of the same compound?
A: 80

Q: And the “Plant response rating, Ryegrass, Italian” value [19, 28]?
A: 70

Q: And the “Plant response rating, Ryegrass, Italian” value [19, 29]?
A: 90

Q: And the “Plant response rating, Ryegrass, Italian” value [20, 30]?
A: 50

Q: What about the “Plant response rating, Ryegrass, Italian” value [20, 31] of the same compound?
A: 80

Q: And the “Plant response rating, Corn” value [21, 30]?
A: 10

Q: What about the “Plant response rating, Corn” value [21, 31] of the same compound?
A: 20

Q: What about the “Plant response rating, Soybean” value [22, 28] of the same compound?
A: 20

Q: And the “Plant response rating, Soybean” value [22, 29]?
A: 90

Q: And the “Plant response rating, Blackgrass” value [23, 30]?
A: 30

Q: What about the “Plant response rating, Blackgrass” value [23, 31] of the same compound?
A: 60

Q: What about the “Plant response rating, Soybean” value [24, 30] of the same compound?
A: 100

Q: And the “Plant response rating, Soybean” value [24, 31]?
A: 100

Q: What about the “Plant response rating, Pigweed, Palmer” value [25, 30] of the same compound?
A: 30

Q: And the “Plant response rating, Pigweed, Palmer” value [25, 31]?
A: 10

Q: What about the “Plant response rating, Kochia” value [26, 30] of the same compound?
A: 10

Q: What about the “Plant response rating, Kochia” value [26, 31] of the same compound?
A: 80

Q: And the “Plant response rating, Goosegrass” value [27, 28]?
A: 70

Q: What about the “Plant response rating, Goosegrass” value [27, 29] of the same compound?
A: 100

Q: `Cc1cc(F)cc2c1OC(C)CN2C(=O)c1cccc(-n2cncn2)c1` (stereo not shown) [Compound 44] was tested. Which “Plant response rating, Sedge, Umbrella” value [1] did it give?
A: 0

Q: And the “Plant response rating, Ragweed” value [2, 28]?
A: 0

Q: And the “Plant response rating, Ragweed” value [2, 29]?
A: 0

Q: And the “Plant response rating, Kochia” value [3, 28]?
A: 0

Q: What about the “Plant response rating, Kochia” value [3, 29] of the same compound?
A: 20

Q: What about the “Plant response rating, Ragweed” value [4, 30] of the same compound?
A: 0

Q: And the “Plant response rating, Ragweed” value [4, 31]?
A: 0

Q: What about the “Plant response rating, Ducksalad” value [5] of the same compound?
A: 0

Q: And the “Plant response rating, Rice” value [6]?
A: 0

Q: And the “Plant response rating, Foxtail, Giant” value [7, 30]?
A: 40

Q: What about the “Plant response rating, Foxtail, Giant” value [7, 31] of the same compound?
A: 90

Q: And the “Plant response rating, Wheat” value [8, 30]?
A: 30

Q: What about the “Plant response rating, Wheat” value [8, 31] of the same compound?
A: 80

Q: What about the “Plant response rating, Corn” value [9, 28] of the same compound?
A: 10

Q: And the “Plant response rating, Corn” value [9, 29]?
A: 30

Q: And the “Plant response rating, Oat, Wild” value [10, 30]?
A: 0

Q: And the “Plant response rating, Oat, Wild” value [10, 31]?
A: 80

Q: And the “Plant response rating, Wheat” value [11, 28]?
A: 0

Q: What about the “Plant response rating, Wheat” value [11, 29] of the same compound?
A: 40

Q: What about the “Plant response rating, Oat, Wild” value [12, 28] of the same compound?
A: 10

Q: And the “Plant response rating, Oat, Wild” value [12, 29]?
A: 50

Q: And the “Plant response rating, Pigweed, Palmer” value [13, 28]?
A: 10

Q: What about the “Plant response rating, Pigweed, Palmer” value [13, 29] of the same compound?
A: 20

Q: What about the “Plant response rating, Galium” value [14, 30] of the same compound?
A: 50

Q: What about the “Plant response rating, Galium” value [14, 31] of the same compound?
A: 70

Q: What about the “Plant response rating, Foxtail, Giant” value [15, 28] of the same compound?
A: 70

Q: And the “Plant response rating, Foxtail, Giant” value [15, 29]?
A: 100

Q: And the “Plant response rating, Goosegrass” value [16, 30]?
A: 30

Q: What about the “Plant response rating, Goosegrass” value [16, 31] of the same compound?
A: 70

Q: What about the “Plant response rating, Barnyardgrass” value [17] of the same compound?
A: 0

Q: What about the “Plant response rating, Blackgrass” value [18, 28] of the same compound?
A: 10

Q: And the “Plant response rating, Blackgrass” value [18, 29]?
A: 80

Q: What about the “Plant response rating, Ryegrass, Italian” value [19, 28] of the same compound?
A: 80

Q: What about the “Plant response rating, Ryegrass, Italian” value [19, 29] of the same compound?
A: 100

Q: And the “Plant response rating, Ryegrass, Italian” value [20, 30]?
A: 50

Q: And the “Plant response rating, Ryegrass, Italian” value [20, 31]?
A: 80

Q: What about the “Plant response rating, Corn” value [21, 30] of the same compound?
A: 30

Q: And the “Plant response rating, Corn” value [21, 31]?
A: 70

Q: What about the “Plant response rating, Soybean” value [22, 28] of the same compound?
A: 40

Q: And the “Plant response rating, Soybean” value [22, 29]?
A: 70

Q: And the “Plant response rating, Blackgrass” value [23, 30]?
A: 30

Q: What about the “Plant response rating, Blackgrass” value [23, 31] of the same compound?
A: 60

Q: And the “Plant response rating, Soybean” value [24, 30]?
A: 100

Q: And the “Plant response rating, Soybean” value [24, 31]?
A: 100

Q: What about the “Plant response rating, Pigweed, Palmer” value [25, 30] of the same compound?
A: 30

Q: What about the “Plant response rating, Pigweed, Palmer” value [25, 31] of the same compound?
A: 10

Q: And the “Plant response rating, Kochia” value [26, 30]?
A: 10

Q: And the “Plant response rating, Kochia” value [26, 31]?
A: 20

Q: What about the “Plant response rating, Goosegrass” value [27, 28] of the same compound?
A: 90

Q: What about the “Plant response rating, Goosegrass” value [27, 29] of the same compound?
A: 100
